Test results taken from PubChem BioAssay (NCI).
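Abbreviation: GI50, concentration required for 50% inhibition of growth. The concentration for full growth arrest is given as TGI.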

What was measured:
Assay in all cases: NCI-60 cell line screen, 384-well format
UACC-62 melanoma = tested on: UACC-62 melanoma
MCF7 breast = tested on: MCF7 breast
MDA-MB-435 melanoma = tested on: MDA-MB-435 melanoma
MDA-MB-231 breast = tested on: MDA-MB-231 breast
HL-60(TB) leukemia = tested on: HL-60(TB) leukemia
BT-549 breast = tested on: BT-549 breast
MOLT-4 leukemia = tested on: MOLT-4 leukemia
SK-OV-3 ovarian = tested on: SK-OV-3 ovarian
NCI-H23 lung = tested on: NCI-H23 lung
UACC-257 melanoma = tested on: UACC-257 melanoma
PC-3 prostate = tested on: PC-3 prostate
M14 melanoma = tested on: M14 melanoma
SF-539 CNS = tested on: SF-539 CNS
NCI-H460 NSCLC = tested on: NCI-H460 NSCLC
HCT-15 colon = tested on: HCT-15 colon
K-562 leukemia = tested on: K-562 leukemia
NCI-H226 lung = tested on: NCI-H226 lung
CCRF-CEM leukemia = tested on: CCRF-CEM leukemia
HT29 colon = tested on: HT29 colon
HOP-92 NSCLC = tested on: HOP-92 NSCLC
A498 renal = tested on: A498 renal
OVCAR-4 ovarian = tested on: OVCAR-4 ovarian
OVCAR-5 ovarian = tested on: OVCAR-5 ovarian
T-47D breast = tested on: T-47D breast
SNB-75 CNS = tested on: SNB-75 CNS
SR leukemia = tested on: SR leukemia
NCI-H522 lung = tested on: NCI-H522 lung
NCI/ADR-RES ovarian = tested on: NCI/ADR-RES ovarian

CCC[C@H](N[C@@H]1CCc2cc(F)cc(F)c2C1)C(=O)Nc1cn(C(C)(C)CNCC(C)(C)C)cn1
GI50 (UACC-62 melanoma): 15.7 µM
TGI (UACC-62 melanoma): 29.3 µM
GI50 (MCF7 breast): 5.11 µM
TGI (MCF7 breast): 19.8 µM
GI50 (MDA-MB-435 melanoma): 16.6 µM
TGI (MDA-MB-435 melanoma): 35.1 µM
GI50 (MDA-MB-231 breast): 12.3 µM
TGI (MDA-MB-231 breast): 27.1 µM
GI50 (HL-60(TB) leukemia): 2.77 µM
TGI (HL-60(TB) leukemia): 14.5 µM
GI50 (BT-549 breast): 9.95 µM
TGI (BT-549 breast): 22.1 µM
GI50 (MOLT-4 leukemia): 4.04 µM
TGI (MOLT-4 leukemia): 15.2 µM
GI50 (SK-OV-3 ovarian): 14.2 µM
TGI (SK-OV-3 ovarian): 29.5 µM
GI50 (NCI-H23 lung): 11.9 µM
TGI (NCI-H23 lung): 26 µM
GI50 (UACC-257 melanoma): 0.535 µM
TGI (UACC-257 melanoma): 18.4 µM
GI50 (PC-3 prostate): 7.53 µM
TGI (PC-3 prostate): 21.4 µM
GI50 (M14 melanoma): 13.8 µM
TGI (M14 melanoma): 27 µM
GI50 (SF-539 CNS): 16.5 µM
TGI (SF-539 CNS): 30.3 µM
GI50 (NCI-H460 NSCLC): 14.9 µM
TGI (NCI-H460 NSCLC): 28.9 µM
GI50 (HCT-15 colon): 8.15 µM
TGI (HCT-15 colon): 21.3 µM
GI50 (K-562 leukemia): 10.6 µM
TGI (K-562 leukemia): 22.8 µM
GI50 (NCI-H226 lung): 13.8 µM
TGI (NCI-H226 lung): 28.3 µM
GI50 (CCRF-CEM leukemia): 7.5 µM
TGI (CCRF-CEM leukemia): 21 µM
GI50 (HT29 colon): 11 µM
TGI (HT29 colon): 23.7 µM
GI50 (HOP-92 NSCLC): 11.7 µM
TGI (HOP-92 NSCLC): 24.1 µM
GI50 (A498 renal): 10.5 µM
TGI (A498 renal): 22.8 µM
GI50 (OVCAR-4 ovarian): 1.09 µM
TGI (OVCAR-4 ovarian): 35.9 µM
GI50 (OVCAR-5 ovarian): 19.7 µM
TGI (OVCAR-5 ovarian): 49.4 µM
GI50 (T-47D breast): 2.11 µM
TGI (T-47D breast): 17 µM
GI50 (SNB-75 CNS): 15.8 µM
TGI (SNB-75 CNS): 42.8 µM
GI50 (SR leukemia): 4.2 µM
TGI (SR leukemia): 16.2 µM
GI50 (NCI-H522 lung): 13.2 µM
TGI (NCI-H522 lung): 28.8 µM
GI50 (NCI/ADR-RES ovarian): 10.9 µM
TGI (NCI/ADR-RES ovarian): 24.3 µM
